According to PMC7584622, “Sensing of autoinducer-2 by functionally distinct receptors in prokaryotes” (Nature Communications, 2020):
Where “and” joins values, the source holds several entries; their conditions need not be identical. Identical values can stand only once.

What was measured:
PctA-LBD D146A = biological target: T1, PctA-LBD D146A (Pseudomonas aeruginosa, UniProt G3XD24, D146A); experiment: biochemical; format: binding; conditions: PctA-LBD D146A 70 μM; DPD/AI-2 700 μM
T1 construct: Amino acids 30-278 and 36-360 of PctA and TlpQ, respectively; His6 (N, cleaved yes); made in house; host or cells: E. coli BL21(DE3) (pET-28a derivative)

PctA-LBD A147F = biological target: T2, PctA-LBD A147F (Pseudomonas aeruginosa, UniProt G3XD24, A147F); experiment: biochemical; format: binding; conditions: PctA-LBD A147F 70 μM; DPD/AI-2 700 μM
T2 construct: Amino acids 30-278 and 36-360 of PctA and TlpQ, respectively; His6 (N, cleaved yes); made in house; host or cells: E. coli BL21(DE3) (pET-28a derivative)

PctA = biological target: T3, PctA (Pseudomonas aeruginosa, UniProt G3XD24); experiment: in vitro methylation of PctA by CheR1 (LC-MS/MS); format: biochemical, P. aeruginosa; conditions: for Methylation level (%) of PctA at E381: CheR1, 10 μM SAM, 1 h, 30 °C; for Methylation level (%) of PctA, Fig. S5a / Methylation level (%) of PctA, Fig. S5b: site not given (Supplementary Fig. 5: E395 and E614)
T3 construct: the membrane fractions containing full-length PctA, KinD or rpHK1S-Z16 were collected; made in house; host or cells: E. coli HCB721 (pHSe5), membrane fractions
Procedure: The reaction was initiated by adding 10 μM SAM and the reaction was allowed to proceed for another 1 h at 30 °C. […] A control experiment was performed with no addition of SAM to check the initial methylation state of PctA. The reaction was stopped by adding 2× SDS-PAGE loading buffer. The reaction products were resolved by SDS-PAGE and stained with Coomassie brilliant blue. The gel bands corresponding to PctA were excised and used for detection and quantification of methylation by nano-LC-MS/MS.
Gel slices excised from SDS-PAGE gels were destained with three washes in 100 μl of 100 mM ammonium bicarbonate in 50% acetonitrile at 37 °C for 15 min. Destained gel pieces were dried in a SpeedVac (Thermo Fisher Scientific) for 15 min. 10 mM DTT in 25 mM ammonium bicarbonate was added to cover the gel pieces and incubated at 56 °C for 1 h. After cooling to room temperature, the supernatant was replaced by 55 mM iodoacetamide in 25 mM ammonium bicarbonate followed by 1 h incubation at room temperature in darkness. Gel slices were washed with 100 μl of 25 mM ammonium bicarbonate for 10 min, and then shrunk in acetonitrile for 10 min. Acetonitrile was removed and the gel slices were dried in a SpeedVac. The dried gel slices were swollen with 20 μl of 12.5 ng µl^−1 Pierce^TM trypsin protease (MS-grade; Thermo Fisher Scientific) in 50 mM ammonium bicarbonate at 4 °C for 1 h. An additional 30 μl of 50 mM ammonium bicarbonate was supplemented, followed by overnight incubation at 37 °C. After digestion, supernatants were transferred to a new tube, and remaining peptides were extracted from the gel slices with 50 μl of 0.1% trifluoroacetic acid at 37 °C for 30 min. Combined extracts for each gel slice were dried in a SpeedVac. The dried peptide samples were resolubilized in 0.1% formic acid and analyzed in C18 reversed-phase column connected to an EASY-nLC 1000 interfaced via a Nanospray Flex ion source to an Orbitrap Fusion Tribrid mass spectrometer (Thermo Fisher Scientific). The LC mobile phase consisted of 0.1% formic acid (v/v) in water (A) and 0.1% formic acid in acetonitrile (B). […] A data-dependent Top 20 method was used with precursor MS1 scan (m/z 350–1550) acquired in the Orbitrap at a resolution of 120,000, followed by Orbitrap HCD-MS/MS and OTHCD-MS/MS of the 20 most abundant multiply charged precursors in the MS1 spectrum. MS2 spectra were acquired at a resolution of 30,000. Methylation on glutamic acid residues of PctA and phosphorylation on histidine residues of KinD were set as variable modifications. Protein identification and quantification were performed using Mascot Daemon version 2.5.1 (Matrix Science, Boston, USA) considering the specific modifications.

rpHK1S-Z16-LBD = rpHK1S-Z16-LBD (Rhodopseudomonas palustris, UniProt Q6N3S7); experiment: ITC binding to rpHK1S-Z16-LBD; design: species or system R. palustris; conditions: 700 μM DPD/AI-2 into 70 μM rpHK1S-Z16-LBD
LuxP = biological target: LuxP; design: method as in PMID 18215018; conditions: established receptor LuxP; cited from earlier work
PctA-LBD M111A = biological target: T4, PctA-LBD M111A (Pseudomonas aeruginosa, UniProt G3XD24, M111A); experiment: biochemical; format: binding; conditions: PctA-LBD M111A 70 μM; DPD/AI-2 700 μM
T4 construct: Amino acids 30-278 and 36-360 of PctA and TlpQ, respectively; His6 (N, cleaved yes); made in house; host or cells: E. coli BL21(DE3) (pET-28a derivative)

P. aeruginosa PAO1 = experiment: confocal laser-scanning microscopy of static biofilms (biovolume, COMSTAT); conditions: 100 nM DPD/AI-2
Procedure: Biofilms were stained with crystal violet and quantified using optical density measurement after incubation at 37 °C for 48 h. […] Images were reconstructed using the Imaris 9.0 software package (Bitplane, AG) (Supplementary Fig. 6) and biofilm biovolumes were quantified using COMSTAT (www.comstat.dk). Biovolumes were calculated from three biological replicates and each biological replicate was derived from an average of five confocal images.
For confocal laser-scanning microscopy and image analysis of static biofilms, overnight cultures of P. aeruginosa strains carrying pME6032-mCherry were diluted with TSB medium to an OD600 of 0.01 (~2 × 10^7 CFU ml^−1). […] The cultures were incubated at 37 °C under static conditions and biofilms were visualized using a Revolution XD laser-scanning confocal microscope (Andor, Belfast, Northern Ireland) after 1, 10, and 19 h. The excitation/emission wavelength for mCherry was 568/590 nm. Images were reconstructed using the Imaris 9.0 software package (Bitplane, AG) and the biovolumes were calculated using COMSTAT 2.1[46] plugin in ImageJ software (version 1.48). Biovolumes were measured and calculated from three biological replicates and each biological replicate was derived from an average of five confocal images.

PctB-LBDE146D = biological target: T5, PctB-LBDE146D (Pseudomonas aeruginosa, UniProt Q9HW91, E146D); experiment: biochemical; format: binding; conditions: 700 μM DPD/AI-2 into 70 μM PctB-LBD E146D
T5 construct: the dCACHE-type LBDs of PctB and PctC; His6 (N, cleaved yes); made in house; host or cells: E. coli BL21(DE3) (pET-28a derivative)

PctA-LBD W128A = biological target: T6, PctA-LBD W128A (Pseudomonas aeruginosa, UniProt G3XD24, W128A); experiment: biochemical; format: binding; conditions: PctA-LBD W128A 70 μM; DPD/AI-2 700 μM
T6 construct: Amino acids 30-278 and 36-360 of PctA and TlpQ, respectively; His6 (N, cleaved yes); made in house; host or cells: E. coli BL21(DE3) (pET-28a derivative)

KinD = biological target: T7, KinD (Bacillus subtilis, UniProt O31671); experiment: in vitro kinase assay, KinD autophosphorylation (LC-MS/MS); format: biochemical, B. subtilis; conditions: 100 μM ATP, 30 min, 30 °C
T7 construct: The genes encoding full-length KinD and rpHK1S-Z16 were cloned with a C-terminal His6 tag into pHSe5; made in house; host or cells: E. coli BL21(DE3) ΔluxS (pHSe5), membrane fractions
Procedure: Twenty micrograms of membrane fractions containing KinD was preincubated in a 50-μl reaction system containing 50 mM Tris-HCl (pH 7.8), 2 mM DTT, 25 mM NaCl, 25 mM KCl, 5 mM MgCl2 for 10 min at 30 °C. […] A control experiment was performed without ATP to check the initial phosphorylation state of KinD. After 30 min incubation at 30 °C, products were resolved by SDS-PAGE, and the gel bands corresponding to KinD were excised and used for detection and quantification of phosphorylation by nano-LC-MS/MS.
Gel slices excised from SDS-PAGE gels were destained with three washes in 100 μl of 100 mM ammonium bicarbonate in 50% acetonitrile at 37 °C for 15 min. Destained gel pieces were dried in a SpeedVac (Thermo Fisher Scientific) for 15 min. 10 mM DTT in 25 mM ammonium bicarbonate was added to cover the gel pieces and incubated at 56 °C for 1 h. […] The dried peptide samples were resolubilized in 0.1% formic acid and analyzed in C18 reversed-phase column connected to an EASY-nLC 1000 interfaced via a Nanospray Flex ion source to an Orbitrap Fusion Tribrid mass spectrometer (Thermo Fisher Scientific). […] Protein identification and quantification were performed using Mascot Daemon version 2.5.1 (Matrix Science, Boston, USA) considering the specific modifications.

T3 sequence (G3XD24 whole entry): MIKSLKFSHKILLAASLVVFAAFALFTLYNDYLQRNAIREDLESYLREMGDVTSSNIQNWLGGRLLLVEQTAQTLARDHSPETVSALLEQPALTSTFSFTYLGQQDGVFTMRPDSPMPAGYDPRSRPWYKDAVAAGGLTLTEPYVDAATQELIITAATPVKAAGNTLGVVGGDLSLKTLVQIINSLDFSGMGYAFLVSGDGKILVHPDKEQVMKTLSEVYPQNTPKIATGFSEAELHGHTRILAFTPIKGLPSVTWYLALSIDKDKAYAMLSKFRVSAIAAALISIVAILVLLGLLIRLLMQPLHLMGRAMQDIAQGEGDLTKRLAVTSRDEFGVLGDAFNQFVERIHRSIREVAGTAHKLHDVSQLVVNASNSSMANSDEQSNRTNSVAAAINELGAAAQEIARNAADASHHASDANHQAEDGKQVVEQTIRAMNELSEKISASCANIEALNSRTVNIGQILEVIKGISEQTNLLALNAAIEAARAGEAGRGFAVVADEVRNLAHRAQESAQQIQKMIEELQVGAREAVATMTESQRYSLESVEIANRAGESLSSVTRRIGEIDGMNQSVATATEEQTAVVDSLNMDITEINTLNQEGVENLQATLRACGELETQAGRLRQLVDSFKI
T4 sequence (G3XD24 30-278 M111A): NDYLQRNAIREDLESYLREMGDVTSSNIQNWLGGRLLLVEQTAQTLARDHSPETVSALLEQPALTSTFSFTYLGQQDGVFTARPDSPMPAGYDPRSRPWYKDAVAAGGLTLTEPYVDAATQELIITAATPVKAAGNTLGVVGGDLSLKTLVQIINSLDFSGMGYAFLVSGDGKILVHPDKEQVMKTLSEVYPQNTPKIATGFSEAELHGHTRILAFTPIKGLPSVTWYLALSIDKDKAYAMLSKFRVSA
T7 sequence (O31671 whole entry): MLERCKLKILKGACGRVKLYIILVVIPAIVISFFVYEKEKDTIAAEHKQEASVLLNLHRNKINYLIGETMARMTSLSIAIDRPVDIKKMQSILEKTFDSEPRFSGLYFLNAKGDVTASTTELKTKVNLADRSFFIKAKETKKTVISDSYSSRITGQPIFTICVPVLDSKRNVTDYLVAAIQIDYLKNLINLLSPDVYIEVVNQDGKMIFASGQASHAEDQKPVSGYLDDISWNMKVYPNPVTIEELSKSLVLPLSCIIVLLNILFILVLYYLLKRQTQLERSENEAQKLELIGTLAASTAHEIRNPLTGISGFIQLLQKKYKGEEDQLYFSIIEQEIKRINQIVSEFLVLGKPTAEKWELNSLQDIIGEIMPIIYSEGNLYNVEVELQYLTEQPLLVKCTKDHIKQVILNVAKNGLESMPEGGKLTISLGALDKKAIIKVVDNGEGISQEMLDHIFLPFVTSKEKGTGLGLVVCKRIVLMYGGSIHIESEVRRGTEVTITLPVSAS
T6 sequence (G3XD24 30-278 W128A): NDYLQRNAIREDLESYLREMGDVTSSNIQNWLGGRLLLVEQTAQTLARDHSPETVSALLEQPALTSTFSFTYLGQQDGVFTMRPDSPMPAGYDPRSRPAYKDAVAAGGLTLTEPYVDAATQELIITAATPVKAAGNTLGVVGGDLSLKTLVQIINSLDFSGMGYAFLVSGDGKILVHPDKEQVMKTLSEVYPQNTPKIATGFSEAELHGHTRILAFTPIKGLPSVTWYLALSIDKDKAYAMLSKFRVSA
T2 sequence (G3XD24 30-278 A147F): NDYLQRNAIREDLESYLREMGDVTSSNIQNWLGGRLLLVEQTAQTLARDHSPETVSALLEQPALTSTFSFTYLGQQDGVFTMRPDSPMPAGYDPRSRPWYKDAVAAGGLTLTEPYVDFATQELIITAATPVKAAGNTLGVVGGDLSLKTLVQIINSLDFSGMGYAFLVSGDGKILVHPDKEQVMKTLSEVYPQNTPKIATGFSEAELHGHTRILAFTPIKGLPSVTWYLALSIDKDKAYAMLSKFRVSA
T5 sequence (Q9HW91 32-276 E146D): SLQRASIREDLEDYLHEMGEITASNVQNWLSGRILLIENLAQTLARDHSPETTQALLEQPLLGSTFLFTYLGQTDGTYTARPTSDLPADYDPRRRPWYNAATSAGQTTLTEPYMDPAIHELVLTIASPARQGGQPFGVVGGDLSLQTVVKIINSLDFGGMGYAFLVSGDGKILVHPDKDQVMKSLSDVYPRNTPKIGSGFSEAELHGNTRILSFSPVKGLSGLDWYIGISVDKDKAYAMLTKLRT
T1 sequence (G3XD24 30-278 D146A): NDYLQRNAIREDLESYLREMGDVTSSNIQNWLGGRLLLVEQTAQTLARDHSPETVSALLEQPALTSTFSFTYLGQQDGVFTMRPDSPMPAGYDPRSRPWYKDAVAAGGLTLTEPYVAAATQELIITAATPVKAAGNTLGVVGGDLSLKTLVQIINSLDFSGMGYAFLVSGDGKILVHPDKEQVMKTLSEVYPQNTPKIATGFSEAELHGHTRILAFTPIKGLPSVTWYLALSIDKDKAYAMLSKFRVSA
Sequence of rpHK1S-Z16-LBD (Q6N3S7 entry or part of it): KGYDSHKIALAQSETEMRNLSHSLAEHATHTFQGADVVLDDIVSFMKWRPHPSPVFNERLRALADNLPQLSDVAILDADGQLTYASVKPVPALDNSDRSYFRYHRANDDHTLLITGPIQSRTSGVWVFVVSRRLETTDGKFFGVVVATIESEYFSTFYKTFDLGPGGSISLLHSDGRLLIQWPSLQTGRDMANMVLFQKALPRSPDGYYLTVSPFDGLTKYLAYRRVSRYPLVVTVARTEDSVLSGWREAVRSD

## CC(=O)C(=O)C(O)CO (stereo not drawn) [DPD/AI-2, 4,5-dihydroxy-2,3-pentanedione]
PctA-LBD D146A
  Kd: 39 µM and 30 µM and 31 µM
PctA-LBD A147F
  Kd: 11 µM and 10 µM and 12 µM
PctA; 100 μM DPD/AI-2
  Methylation level (%) of PctA at E381: 47.62% and 40.00%
  Methylation level (%) of PctA, Fig. S5a: 41.67% and 36.36% and 40.00%
  Methylation level (%) of PctA, Fig. S5b: 2.78% and 2.86% and 2.41%
PctA; 500 μM DPD/AI-2
  Methylation level (%) of PctA at E381: 66.67% and 55.56% and 63.16%
  Methylation level (%) of PctA, Fig. S5a: 39.22% and 37.21% and 34.21%
  Methylation level (%) of PctA, Fig. S5b: 2.27% and 2.63%
rpHK1S-Z16-LBD
  Kd: 0.13 µM and 0.19 µM and 0.21 µM
LuxP
  Kd: 0.16 µM
PctA-LBD M111A
  Kd: 14 µM and 21 µM and 17 µM
P. aeruginosa PAO1; WT, 1 h
  Biovolume of P. aeruginosa: 28364 μm3 mm-2 and 23058 μm3 mm-2 and 27608 μm3 mm-2
P. aeruginosa PAO1; WT, 10 h
  Biovolume of P. aeruginosa: 1281908 μm3 mm-2 and 1109100 μm3 mm-2 and 1052160 μm3 mm-2
P. aeruginosa PAO1; WT, 19 h
  Biovolume of P. aeruginosa: 3128446 μm3 mm-2 and 3141281 μm3 mm-2 and 3321156 μm3 mm-2
P. aeruginosa PAO1; ΔpctA, 1 h
  Biovolume of P. aeruginosa: 25418 μm3 mm-2 and 25743 μm3 mm-2 and 24604 μm3 mm-2
P. aeruginosa PAO1; ΔpctA, 10 h
  Biovolume of P. aeruginosa: 609991 μm3 mm-2 and 657748 μm3 mm-2 and 721040 μm3 mm-2
P. aeruginosa PAO1; ΔpctA, 19 h
  Biovolume of P. aeruginosa: 1305959 μm3 mm-2 and 1192157 μm3 mm-2 and 1109432 μm3 mm-2
P. aeruginosa PAO1; ΔpctAΔtlpQ, 1 h
  Biovolume of P. aeruginosa: 24520 μm3 mm-2 and 23099 μm3 mm-2 and 23881 μm3 mm-2
P. aeruginosa PAO1; ΔpctAΔtlpQ, 10 h
  Biovolume of P. aeruginosa: 372013 μm3 mm-2 and 288390 μm3 mm-2 and 355734 μm3 mm-2
P. aeruginosa PAO1; ΔpctAΔtlpQ, 19 h
  Biovolume of P. aeruginosa: 111554 μm3 mm-2 and 108961 μm3 mm-2 and 114758 μm3 mm-2
P. aeruginosa PAO1; ΔtlpQ, 1 h
  Biovolume of P. aeruginosa: 22029 μm3 mm-2 and 31306 μm3 mm-2 and 26285 μm3 mm-2
P. aeruginosa PAO1; ΔtlpQ, 10 h
  Biovolume of P. aeruginosa: 645081 μm3 mm-2 and 690688 μm3 mm-2 and 715157 μm3 mm-2
P. aeruginosa PAO1; ΔtlpQ, 19 h
  Biovolume of P. aeruginosa: 1292148 μm3 mm-2 and 1288991 μm3 mm-2 and 1359959 μm3 mm-2
PctB-LBDE146D
  Kd: 0.22 µM and 0.27 µM and 0.23 µM
PctA-LBD W128A
  Kd: 25 µM and 24 µM and 18 µM
KinD; 10 μM DPD/AI-2
  Phosphorylation level (%) of KinD: 27.45% and 24.59% and 21.92% and 23.68%
KinD; 50 μM DPD/AI-2
  Phosphorylation level (%) of KinD: 49.23% and 54.72% and 52.70% and 57.14%
